Source: patent US10167453B2, “Saccharide oxidase, and production method for same and use of same” (AMANO ENZYME INC., priority 2012, dated 2019)
Where two headings read alike, the source gives them in different places.

Experiments:
[1] = target: Acremonium chrysogenum NBRC30055-derived saccharide oxidase (Hapsidospora chrysogena, UniProt A0A086T4F9); assay: Investigation of substrate specificity; assay type: biochemical
Protocol: Using each saccharide indicated in Table 4 shown below as a substrate and in the presence of oxygen, the protein purified in Example 1 described above was reacted for 5 minutes at 37° C. at pH 7.0, and the measurement was conducted in accordance with the aforementioned saccharide oxidase activity measuring method. In addition, regarding the activity toward the glucose as 100%, the relative value of the activity toward each saccharide was calculated, thereby evaluating the substrate specificity.

[2] = system: OC[C@H]1OC(O)[C@H](O)[C@@H](O)[C@@H]1O; assay: purified protein, by the assay type; details: other: saccharide as substrate of the purified protein; pH 7.0; 37.0 °C
Description: Using the protein purified in the aforementioned Example together with glucose and maltose as substrates, the aforementioned saccharide oxidase activity method was used to measure the activity thereby obtaining Hanes-Woolf plots, from which each Michaelis constant (Km) was obtained.

[3] = Investigation of thermostability; assay type: physicochemical
Protocol: (§1) Since a quinoneimine color having absorption band at a wavelength of 550 nm was formed when the enzymatic reaction advanced, the saccharide oxidase activity was measured by measuring the increase in the absorbance at a wavelength of 550 nm per minute.
The protein solution purified in the aforementioned Example 1 was subjected to a heat treatment for 15 minutes at a temperature of 20° C., 25° C., 30° C., 35° C., 37° C., 40° C., 45° C., 50° C., 55° C., 60° C., 65° C., 70° C., 75° C., and 80° C., and thereafter the residual activity was measured by the aforementioned saccharide oxidase activity method. Regarding the activity with no heat treatment as 100%, each value of the residual activity was calculated. The results are indicated in the drawing-substituting graph of FIG. 5.

[4] = Investigation of pH stability; assay type: physicochemical; details: pH5.0 to pH10.5, 15 minutes at 37° C.; treatment at pH7.0 = 100%; maltose substrate
Protocol: as §1
The protein solution purified in the aforementioned Example 1 and the buffer solution of each pH used in the aforementioned Example 3 were mixed in equal volumes and treated for 15 minutes at 37° C., and thereafter the activity was measured by the aforementioned saccharide oxidase activity measuring method. As a substrate, maltose was used. In addition, regarding the activity when using monopotassium phosphate-sodium hydroxide buffer solution (pH7.0) for treatment as 100%, each relative value of the activity was calculated. The results are indicated in the drawing-substituting graph of FIG. 3.

[5] = Production of lactobionic acid (HPLC verification); assay type: biochemical; details: 3 U protein, 0.75 g lactose monohydrate, 23 hours, 40° C., 160 rpm
Protocol: 3 ml of a solution containing 0.75 g of lactose monohydrate, 0.225 g of potassium carbonate, and 3 U of the protein purified in the aforementioned Example 1 was added and shaken for 23 hours under the condition involving 40° C. and 160 rpm.
After the reaction, the sample was boiled for 10 minutes and then centrifuged at 15,000 rpm for 10 minutes. The resultant supernatant was filtered through a 0.45 μm filter and subjected to an HPLC analysis.

[6] = Thermal inactivation after desugaring of egg white; assay type: physicochemical
Protocol: 100 μL of the desugared egg white was subjected to a heat treatment at a temperature of 54, 56, and 58° C. for 1, 3, 5, and 8 minutes, respectively, and then cooled on ice, and the residual activity of each enzyme was measured.

[7] = relative activity 50% or higher versus glucose is judged satisfactory
[8] = saccharide as substrate, activity toward glucose = 100%, 37° C., pH 7.0, 5 minutes, in the presence of oxygen

Lactose monohydrate
effect of the saccharide oxidase on the substrate (in words) [1]: satisfactory effect

OC[C@H]1O[C@@](CO)(O[C@H]2O[C@H](CO)[C@@H](O)[C@H](O)[C@H]2O)[C@@H](O)[C@@H]1O [Sucrose]
Relative activity (%) ([1]; pH 7): 0% | effect of the saccharide oxidase on the substrate (in words) [1, 7]: No effect

Maltopentaose
Relative activity (%) [1, 8]: 39%

O=C[C@H](O)[C@@H](O)[C@@H](O)[C@H](O)CO [Galactose]
effect of the saccharide oxidase on the substrate (in words) [1, 7]: satisfactory effect | Relative activity (%) [1, 8]: 79% | Relative activity (%) ([1]; saccharide as substrate, activity toward glucose = 100%, 37° C., pH 7.0, 5 minutes, in the presence of oxygen, listed as galactose): about 79%

O=C(CO)[C@@H](O)[C@H](O)[C@H](O)CO [D(−)-Fructose]
Relative activity (%) ([1]; pH 7): 0% | effect of the saccharide oxidase on the substrate (in words) [1, 7]: No effect

Maltotriose
effect of the saccharide oxidase on the substrate (in words) [1, 7]: satisfactory effect | Relative activity (%) [1, 8]: 92% | Relative activity (%) ([1]; saccharide as substrate, activity toward glucose = 100%, 37° C., pH 7.0, 5 minutes, in the presence of oxygen, listed as maltotriose): about 92%

OC[C@H]1O[C@H](O[C@H]2[C@H](O)[C@@H](O)[C@@H](O[C@H]3[C@H](O)[C@@H](O)[C@@H](O[C@H]4[C@H](O)[C@@H](O)C(O)O[C@@H]4CO)O[C@@H]3CO)O[C@@H]2CO)[C@H](O)[C@@H](O)[C@@H]1O (some centres unmarked) [Maltotetraose]
effect of the saccharide oxidase on the substrate (in words) [1, 7]: satisfactory effect | Relative activity (%) [1, 8]: 60% | Relative activity (%) ([1]; saccharide as substrate, activity toward glucose = 100%, 37° C., pH 7.0, 5 minutes, in the presence of oxygen, listed as maltotetraose): about 60%

Maltohexaose
Relative activity (%) [1, 8]: 28%

Maltoheptaose
Relative activity (%) [1, 8]: 24%

Maltose monohydrate
effect of the saccharide oxidase on the substrate (in words) [1]: satisfactory effect

Acremonium chrysogenum NBRC30055-derived saccharide oxidase (Hapsidospora chrysogenum ATCC 11550)
Km [2]: 8 mM

OC[C@H]1O[C@@H](O[C@H]2[C@H](O)[C@@H](O)[C@H](O)O[C@@H]2CO)[C@H](O)[C@@H](O)[C@@H]1O [D(+)-Cellobiose]
effect of the saccharide oxidase on the substrate (in words) [1, 7]: satisfactory effect

B1: Saccharide oxidase: protein having saccharide oxidase activity purified from Acremonium chrysogenum NBRC30055, about 63 kDa, amino acid sequence SEQ. ID. NO:10 (protein, listed as Acremonium chrysogenum)
chain: MRSLAPLLSIAALARASPVDTSLLTRQETLNTCLEAAELSYVDVNSEDWEDAIVPHNLRVPVVPRAVVYATATEQIQAAVKCAVESEIRVSAKSGGHSYASMGLGGEDGSLVIQLDHWHDVTLRDDNTAVVSAGTRLGVVALELYAQGKRGISHGTCPSVGVGGHVVHGGYGFSSHTHGLALDAVVGANVVLADGSLVHASETENTDLFWALRGGGSSFGIVAEFEFETFDVSHNFSYFSIDSDISQETAEEATASLLAFQDALEEGLMDRKLNMRLSLGRPKVTLEAVYHGAKEDGRKALELFDDILGLNWSSNRTRANEADWLTMLESWTYGDPLNITYPYEGHDNAYTSSLVTRHIPEDAMASFMTYWKGVGQDRETPNWWLQMDVHGDANSRISEVDADSTAYSHRDKLWLFQFSSPLNPLRPDPEAAFALVNGYMDSIKDHLGDGEWGRYANYIDSELSREDAQTQYWSDHLDKLQAIKAELDPTQVFYNPQSIDPAAVE
residual activity after heat treatment ([3]; 15 minutes at 45° C., pH7.0, no heat treatment = 100%): ≥ 80% | temperature up to which stability was observed ([3]; heat treatment for 15 minutes): up to 45 °C | residual activity after pH treatment [4]: ≥ 85% | production of lactobionic acid from lactose [5]: production of the lactobionic acid was verified | residual enzyme activity in desugared egg white after heat treatment ([6]; 54 and 56° C., 1, 3, 5 and 8 minutes): no substantial reduction in the activity | residual enzyme activity in desugared egg white after heat treatment ([6]; 58° C. for 5 minutes or longer, compared with the glucose oxidase): significant reduction in the activity
